In the test the target is T1, OST3 complex (Saccharomyces cerevisiae, UniProt P39007).
T1 construct: were purified separately from strains expressing only one type of complex; made in house; host or cells: Saccharomyces cerevisiae, BY4742-derived strain ost6::LEU2MX6 OST4-1D4::kanMX6 YEp352-OST3
Kind of test: Turnover of synthetic TAMRA-labeled peptides. It counts as biochemical. As to conditions: for Turnover after 5 min / Glycopeptide detected / Relative turnover: 0.5 µM OST3 complex, 20 µM peptide; for Turnover after 5 min / Relative turnover: 150 µM LLO C20; for Glycopeptide detected: 150 µM LLO C20, 5 min; for Relative turnover: TAMRA-DANYTK turnover defined as 100 %, 5 min. The procedure:
TAMRA-labeled peptides with 5-TAMRA at the N-terminus and an amide group at the C-terminus were synthesized by WatsonBio Sciences. Unlabeled peptides (Table S1) were synthesized by Genscript Corp. and were designed so that the asparagine of the glycosylation sequon was in the middle (except for Peptide 8). Lyophilized peptides were dissolved in dimethyl sulfoxide (DMSO), unless specified otherwise, to a 3 mM stock solution and further diluted in ddH2O for reactions.
Reactions were performed in a total volume of 10 μl containing the specified amount of TAMRA-labeled peptide, synthetic LLO analog, 10 mM MnCl2, and purified OST after size-exclusion chromatography in purification buffer (50 mM Hepes, pH 7.5, 150 mM NaCl, 1 mM MgCl2, 1 mM MnCl2, 10% (v/v) glycerol, 0.03% (w/v) DDM, and 0.006% (w/v) CHS). The concentration of OST was calculated using the molecular weight of 280 kDa. The reaction mixture was preincubated at 30 °C for 5 min before adding the peptide to start the reaction that proceeded at 30 °C. Time points were taken such that the reaction was in the linear phase. At each time point, 1 μl reaction mixture was taken and the reaction was stopped by dilution in stop solution (0.1% FA in 10% ACN, 10 mM KPO4 pH 8.0) such that the final peptide concentration was 2 μM.
Samples were analyzed by reverse-phase chromatography using a UPLC Dionex UltiMate 3000 with an Accucore 150-C18 100 × 2.1 mm 2.6 μm column (Thermo Fisher Scientific). One microliter sample (2 pmol of peptide) was injected and measured by isocratic elution using a certain proportion of ACN (15% ACN for peptide TAMRA-DANYTK; 20% ACN for peptide TAMRA-YANATS) in 10 mM KPO4, pH 8.0 buffer so that the glycopeptide and peptide are fully separated and elute within 3 min at a constant flow rate of 0.7 ml/min, with a column temperature of 45 °C. The peptide and glycopeptide were detected through TAMRA fluorescence (excitation wavelength: 546 nm; emission wavelength: 579 nm).
The UPLC profiles were analyzed by integrating the peaks corresponding to the glycopeptide and peptide using Chromeleon 7 (Dionex) and calculating the amount of glycopeptide formed using the following equation, as previously described ([43]): [GP]=PeakareaGP/PeakareaP+PeakareaGP×[P] […]
Supp. Table 2. Turnover of synthetic TAMRA-labeled peptides
Peptide Glycopeptide Turnover after 5 min Relative turnover […]
TAMRA, tetramethylrhodamine
Turnover of TAMRA-labeled peptides after 5 min was determined using 0.5 µM OST3 complex, 20 µM indicated peptide and 150 µM LLO C20. Relative turnover compared to TAMRA-DANYTK is given by defining TAMRA-DANYTK turnover as 100 %.

In the case of “TAMRA-DANYTK-NH2 [fluorescently labeled hexapeptide TAMRA-DANYTK-NH2 as the acceptor peptide, reference compound]”, the “Turnover after 5 min” value worked out at 6%, the Glycopeptide detected entry is given as “Yes” and the Relative turnover came to 100%.

In the case of “TAMRA-YANATS [shorter version of Peptide 5 of only six amino acid residues (TAMRA-YANATS)]”, the “Turnover after 5 min” value amounted to 84%, the Glycopeptide detected entry was “Yes” and the Relative turnover came to 1400%. Further, the “times faster glycosylation than TAMRA-DANYTK” value (OST3 complex, initial turnover, relative to TAMRA-DANYTK) stood at 14 times.
